What was measured:
[1] = target: JAK2 (recombinant purified GST-tagged catalytic domain) (Homo sapiens (Human), UniProt O60674); assay: biochemical;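 also: biochemical JAK kinase assay with HTRF detection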
[2] = target: JAK1 (recombinant purified GST-tagged catalytic domain) (Homo sapiens (Human), UniProt P23458); assay: biochemical;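 also: biochemical assay with HTRF read-out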
Chain of JAK1 (recombinant purified GST-tagged catalytic domain) (P23458 875-1153): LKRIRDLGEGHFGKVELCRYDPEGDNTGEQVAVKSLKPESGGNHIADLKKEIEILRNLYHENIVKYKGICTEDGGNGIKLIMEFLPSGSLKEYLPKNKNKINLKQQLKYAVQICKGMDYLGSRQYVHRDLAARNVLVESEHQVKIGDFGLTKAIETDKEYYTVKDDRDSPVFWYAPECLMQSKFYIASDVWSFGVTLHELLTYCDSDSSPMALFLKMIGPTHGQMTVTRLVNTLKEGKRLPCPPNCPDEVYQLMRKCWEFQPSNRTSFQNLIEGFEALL

Chain of JAK2 (recombinant purified GST-tagged catalytic domain) (O60674 849-1124): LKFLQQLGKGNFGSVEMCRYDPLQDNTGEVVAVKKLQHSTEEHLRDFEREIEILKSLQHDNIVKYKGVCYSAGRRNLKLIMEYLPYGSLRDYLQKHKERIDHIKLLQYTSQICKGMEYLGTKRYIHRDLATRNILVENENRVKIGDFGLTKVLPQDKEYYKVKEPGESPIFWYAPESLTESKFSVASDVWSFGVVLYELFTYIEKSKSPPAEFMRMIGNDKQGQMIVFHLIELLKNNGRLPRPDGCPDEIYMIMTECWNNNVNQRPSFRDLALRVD

IC50 [1] | IC50 [2] | Compound
8 nM |  | N#C[C@H]1C[C@@H](NCC2CC2)CC[C@@H]1n1cc(C(N)=O)c(Nc2ccc(S(=O)(=O)C(F)(F)F)cc2)n1 (single isomer, unassigned) [Example 28-172, 1-{(1S,2S,4S or 1R,2R,4R)-2-cyano-4-[(cyclopropylmethyl)amino]cyclo-hexyl}-3-({4-[(trifluoromethyl)sulfonyl]phen-yl}amino)-1H-pyrazolc-4-carboxamide]
21 nM |  | N#C[C@H]1CCCC[C@@H]1n1cc(C(N)=O)c(Nc2cnc3cc(Cl)ccc3c2)n1 (single isomer, unassigned) [Example 17-61, 3-[(7-chloroquinolin-3-yl)amino]-1-[(1S,2S or 1R,2R)-2-cyanocyclohexyl]-1H-pyrazole-4-carboxamide]
23 nM |  | C[C@H](N[C@H]1CC[C@H](n2cc(C(N)=O)c(Nc3ccc(S(=O)(=O)C(F)(F)F)cc3)n2)[C@@H](C#N)C1)C1CC1 (single isomer, unassigned) [Example 28-184, 1-{(1S,2S,4S or 1R,2R,4R)-2-cyano-4-[(1-cyclopropylethyl)amino]cyclo-hexyl}-3-({4-[(trifluoromethyl)sulfonyl]phen-yl}amino)-1H-pyrazole-4-carboxamide]
36 nM |  | N#C[C@H]1CCCC[C@@H]1n1cc(C(N)=O)c(Nc2ccccc2)n1 (racemic) [Example 2-1, 1-((1S,2S and 1R,2R)-2-cyanocyclohexyl)-3-(phenylamino)-1H-pyrazole-4-carboxamide]
14 nM |  | N#C[C@H]1C[C@H](OCC2CC2)CC[C@@H]1n1cc(C(N)=O)c(Nc2ccc([C@@H](O)C(F)(F)F)cc2)n1 (single isomer, unassigned) [Example 26-5, 1-[(1S,2S,4R or 1R,2R,4S)-2-cyano-4-(cyclopropylmethoxy)cyclohexyl]-3-({4-[(1R or 1S)-2,2,2-trifluoro-1-hydroxyethyl]phenyl}amino)-1H-pyrazole-4-carboxamide]
28 nM |  | N#C[C@H]1CC(N2CCC[C@H]2CF)CC[C@@H]1n1cc(C(N)=O)c(Nc2ccc(S(=O)(=O)C(F)(F)F)cc2)n1 (single isomer, unassigned) [Example 28-157, 1-{(1S,2S or 1R,2R)-2-cyano-4-[(2S)-2-(fluoromethyl)pyrrolidin-1-yl]cyclohexyl}-3-({4-[(trifluoro-methyl)sulfonyl]phenyl}amino)-1H-pyrazole-4-carboxamide]
11 nM |  | CC(N[C@H]1CC[C@H](n2cc(C(N)=O)c(Nc3ccc(S(=O)(=O)C(F)(F)F)cc3)n2)[C@@H](C#N)C1)C1CC1 (single isomer, unassigned) [Example 28-176, 1-[(1S,2S,4S or 1R,2R,4R)-2-cyano-4-{[(1R)-1-cyclopropylethyl]amino}cyclo-hexyl]-3-({4-[(trifluoromethyl)sulfonyl]phen-yl}amino)-1H-pyrazole-4-carboxamide]
61 nM |  | C[C@@H](N[C@@H]1CC[C@H](n2cc(C(N)=O)c(Nc3ccc(S(=O)(=O)C(F)(F)F)cc3)n2)[C@@H](C#N)C1)C1CC1 (single isomer, unassigned) [Example 28-183, 1-{(1S,2S,4R or 1R,2R,4S)-2-cyano-4-[(1-cyclopropylethyl)amino]cyclo-hexyl}-3-({4-[(trifluoromethyl)sulfonyl]phen-yl}amino)-1H-pyrazole-4-carboxamide]
12 nM |  | C[C@@H](N[C@H]1CC[C@H](n2cc(C(N)=O)c(Nc3ccc(S(=O)(=O)C(F)(F)F)cc3)n2)[C@@H](C#N)C1)C1CC1 (single isomer, unassigned) [Example 28-182, 1-[(1S,2S,4S or 1R,2R,4R)-2-cyano-4-{[(1R)-1-cyclopropylethyl]amino}cyclo-hexyl]-3-({4-[(trifluoromethyl)sulfonyl]phen-yl}amino)-1H-pyrazole-4-carboxamide]
49 nM |  | N#Cc1cncc(Nc2nn([C@H]3CCCC[C@@H]3C#N)cc2C(N)=O)c1 (single isomer, unassigned) [Example 17-74, 1-[(1R,2R or 1S,2S)-2-cyanocyclohexyl]-3-[(5-cyanopyridin-3-yl)amino]-1H-pyrazole-4-carboxamide]
1 nM |  | N#C[C@H]1CCCC[C@@H]1n1cc(C(N)=O)c(Nc2ccc(S(=O)(=O)N3CCOCC3)cc2)n1 (single isomer, unassigned) [Example 17-99, 1-[(1R,2R or 1S,2S)-2-cyanocyclohexyl]-3-{[4-(morpholin-4-ylsulfonyl)phenyl]amino}-1H-pyrazole-4-carboxamide]
37 nM |  | N#C[C@H]1CCCC[C@@H]1n1cc(C(N)=O)c(Nc2ccc(Cl)c(F)c2)n1 (racemic) [Example 17-56, 3-[(4-chloro-3-fluorophenyl)amino]-1-[(1S,2S and 1R,2R)-2-cyanocyclohexyl]-1H-pyrazole-4-carboxamide]
9 nM |  | N#C[C@H]1C[C@H](OCC2CC2)CC[C@@H]1n1cc(C(N)=O)c(Nc2ccc([C@H](O)C(F)(F)F)cc2)n1 (single isomer, unassigned) [Example 26-7, 1-[(1S,2S,4R or 1R,2R,4S)-2-cyano-4-(cyclopropylmethoxy)cyclohexyl]-3-({4-[(1S or 1R)-2,2,2-trifluoro-1-hydroxyethyl]phenyl]amino)-1H-pyrazole-4-carboxamide]
 | 15 nM | N#C[C@H]1C[C@H](O)CCC1n1cc(C(N)=O)c(Nc2ccnc(F)c2)n1 (single isomer, unassigned) [Example 25-25, 1-[(1S,2S,4R or 1R,2R,4S)-2-cyano-4-hydroxycyclohexyl]-3-[2-fluoropyridin-4-yl)amino]-1H-pyrazole-4-carboxamide]
 | 3 nM | N#C[C@H]1C[C@@H](NCC(F)(F)F)CC[C@@H]1n1cc(C(N)=O)c(Nc2ccc(Cl)cc2)n1 (single isomer, unassigned) [Example 28-224, 3-[(4-chlorophenyl)amino]-1-{(1S,2S,4S or 1R,2R,4R)-2-cyano-4-[(2,2,2-trifluoroethyl)amino]cyclo-hexyl}-1H-pyrazole-4-carboxamide]
 | 0.4 nM | CN(C)[C@@H]1CCC(n2cc(C(N)=O)c(Nc3ccc(S(=O)(=O)C(F)(F)F)cc3)n2)[C@@H](C#N)C1 (mixture of isomers) [Example 27-7, 1-[(1S,2S,4R and 1R,2R,4S)-2-cyano-4-(dimethylamino)cyclohexyl]-3-({4-[(trifluoromethyl)sulfonyl]phenyl}amino)-1H-pyrazole-4-carboxamide]
 | 0.49 nM | N#C[C@H]1CCCCC1n1cc(C(N)=O)c(Nc2ccc(S(=O)(=O)CC(F)(F)F)cc2)n1 (mixture of isomers) [Example 17-12, 1-[(1S,2S and 1R,2R)-2-cyanocyclohexyl]-3-({4-[(2,2,2-trifluoroethyl)sulfonyl]phenyl}amino)-1H-pyrazole-4-carboxamide]
 | 0.15 nM | CC(C)N[C@H]1CC[C@H](n2cc(C(N)=O)c(Nc3ccc(S(=O)(=O)C(F)(F)F)cc3)n2)[C@@H](C#N)C1 (single isomer, unassigned) [Example 28-174, 1-{(1S,2S,4S or 1R,2R,4R)-2-cyano-4-[(1-methylethyl)amino]cyclohexy}-3-({4-[(trifluoro-methyl)sulfonyl]phenyl}amino)-1H-pyrazole-4-carboxamide]
 | 0.3 nM | N#C[C@H]1C[C@H](N2CC(O)C2)CC[C@@H]1n1cc(C(N)=O)c(Nc2ccc(S(=O)(=O)C(F)(F)F)cc2)n1 (single isomer, unassigned) [Example 28-150, 1-[(1S,2S,4R or 1R,2R,4S)-2-cyano-4-(3-hydroxyazetidin-1-yl)cyclohexyl]-3-({4-[(trifluoro-methyl)sulfonyl]phenyl}amino)-1H-pyrazole-4-carboxamide]
 | 2 nM | N#C[C@@H]1CCCC[C@H]1n1cc(C(N)=O)c(Nc2ccc3c(c2)CCS3(=O)=O)n1 (single isomer, unassigned) [Example 45-6, 1-[(1S,2R or 1R,2S)-2-cyanocyclohexyl)-3-[(1,1-dioxido-2,3-dihydro-1-benzothiophen-5-yl)amino]-1H-pyrazole-4-carboxamide]
 | 20 nM | CN(C)[C@H]1CC[C@H](n2cc(C(N)=O)c(Nc3ccc(F)cc3)n2)[C@@H](C#N)C1 (single isomer, unassigned) [Example 28-129, 1-[(1S,2S,4S or 1R,2R,4R)-2-cyano-4-(dimethylamino)cyclohexyl]-3-[(4-fluorophenyl)amino]-1H-pyrazole-4-carboxamide]
 | 0.08 nM | CNC1CCC(n2cc(C(N)=O)c(Nc3ccc(S(=O)(=O)C(F)(F)F)cc3)n2)[C@@H](C#N)C1 (mixture of isomers) [Example 27-6, 1-[(1S,2S and 1R,2R)-2-cyano-4-(methylamino)cyclohexyl]-3-({4-[(trifluoromethyl)sulfonyl]phenyl}amino)-1H-pyrazole-4-carboxamide]
 | 0.7 nM | N#C[C@H]1CCCC[C@@H]1n1cc(C(N)=O)c(Nc2ccc(OC(F)F)cc2)n1 (single isomer, unassigned) [Example 17-103, 1-[(1S,2S or 1R,2R)-2-cyanocyclohexyl]-3-{[4-(difluoromethoxy)phenyl]amino}-1H-pyrazole-4-carboxamide]
 | 3 nM | COC1CN([C@H]2CC[C@H](n3cc(C(N)=O)c(Nc4ccc(C(F)(F)F)cc4)n3)[C@@H](C#N)C2)C1 (single isomer, unassigned) [Example 28-99, 1-[(1S,2S,4S or 1R,2R,4R)-2-cyano-4-(3-methoxyazetidin-1-yl)cyclohexyl]-3-{[4-(trifluoromethyl)phenyl]amino}-1H-pyrazole-4-carboxamide]
 | 0.3 nM | CC(=O)c1ccc(Nc2nn([C@H]3CCCC[C@@H]3C#N)cc2C(N)=O)cc1 (single isomer, unassigned) [Example 17-27, 3-[(4-acetylphenyl)amino]-1-[(1S,2S or 1R,2R)-2-cyanocyclohexyl]-1H-pyrazole-4-carboxamide]
 | 0.45 nM | CC(C)(C(=O)O)c1ccc(Nc2nn([C@H]3CCC(N4CCC4)C[C@@H]3C#N)cc2C(N)=O)cc1 (single isomer, unassigned) [Example 28-72, 2-[4-({1-[(1S,2S or 1R,2R)-4-azetidin-1-yl-2-cyanocyclohexyl]-4-carbamoyl-1H-pyrazol-3-yl}amino)phenyl]-2-methylpropanoic acid]

From patent US8962608B2, “Cycloalkylnitrile pyrazole carboxamides as janus kinase inhibitors” (Merck Sharp & Dohme Corp., priority 2011, dated 2015)
